{"source": "paper PMC9901219", "about": "(European Journal of Medicinal Chemistry, 2023)", "tested_on": "F1G cells"}
{"smiles": "Cc1cccc2nc(CSC(=S)NCc3cccnc3)cn12", "note": "[Compound 1, (5-methylimidazo[1,2-a]pyridin-2-yl)methyl (pyridin-3-ylmethyl)carbamodithioate]", "values": [{"measurement": "cytotoxicity", "result": "without cytoxicity at the active doses"}]}
